Assay: Skin permeability, Franz diffusion cell system
Type: in vitro ADME
Conditions: human cadaver skin, fluorescence, up to 24 hours
Text: In a Franz diffusion cell system, a formulation including a drug is applied to a donor chamber while a receptor chamber is filled with physiological saline such as PBS (phosphate buffered saline), with a permeable layer, such as a permeable membrane, animal skin or cell culture skin, fixed between the donor chamber and the receptor chamber. Skin permeability can be determined by measuring the amount of the drug diffusing from the donor chamber to the receptor chamber.
In a Franz diffusion cell system, 5 ml of PBS (pH 7.4 containing 0.05% polysorbate 80) was added to the receptor chamber, a human cadaver skin with a size of 1.5×1.5 cm was fixed between the receptor chamber and the donor chamber, and each sample was placed in a donor chamber. The conditions of 37° C. and 600 rpm were set in the receptor chamber and 500 μl of the sample was recovered each time at sample times of 0.5, 1, 2, 4, 8, 12, 18, and 24 hours. The drug passing through the skin was quantitated according to time by HPLC. The result is depicted in FIG. 18.
To a donor chamber, chitosan-coated nanocapsules containing 2 wt % of Nile red (Nile red@ChiNC) were added in an amount of 2 mg/ml. As a control, Nile red alone, or Nile red-containing nanocapsules without a chitosan coating (Nile red@PluNC) were employed. […] Fluorescence in the samples taken at the predetermined times was measured. […]

skin permeability of Nile red: almost did not penetrate into the skin
SMILES: CCN(CC)c1ccc2nc3c4ccccc4c(=O)cc-3oc2c1 [Nile red]
